Values joined by “and” are separate entries in the source; they are usually repeats but may differ in a detail not shown here. Identical values can stand only once. Toxic doses and inconclusive results are not listed.
Test system: L1210 leukemia ip in BDF1 mice, survival T/C
Assay: NCI In Vivo Anticancer Drug Screen. Data for tumor model L1210 Leukemia (intraperitoneal) in B6D2F1 (BDF1) mice
Details: endpoint: mean survival time, higher = longer survival
Outline: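 Each compound was tested against a transplantable tumor grown in mice. The endpoint was survival, with treated animals benchmarked against vehicle controls as a simple ratio.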

[1] = dose: 50.0 mg/kg/injection, schedule: Q01DX001 (ip), vehicle: saline
[2] = dose: 100.0 mg/kg/injection, schedule: Q01DX001 (ip), vehicle: saline
[3] = dose: 200.0 mg/kg/injection, schedule: Q01DX001 (ip), vehicle: saline
[4] = dose: 400.0 mg/kg/injection, schedule: Q01DX001 (ip), vehicle: saline
[5] = dose: 50.0 mg/kg/injection, schedule: Q01DX009 (ip), vehicle: saline
[6] = dose: 75.0 mg/kg/injection, schedule: Q04DX003 (ip), vehicle: saline
[7] = dose: 150.0 mg/kg/injection, schedule: Q04DX003 (ip), vehicle: saline
[8] = dose: 100.0 mg/kg/injection, schedule: Q01DX009 (ip), vehicle: saline
[9] = dose: 100.0 mg/kg/injection, schedule: Q04DX003 (ip), vehicle: Klucel (hydroxypropylcellulose) (HPC)
[10] = dose: 100.0 mg/kg/injection, schedule: Q04DX003 (ip), vehicle: saline
[11] = dose: 200.0 mg/kg/injection, schedule: Q01DX009 (ip), vehicle: saline
[12] = dose: 200.0 mg/kg/injection, schedule: Q04DX003 (ip), vehicle: Klucel (hydroxypropylcellulose) (HPC)
[13] = dose: 200.0 mg/kg/injection, schedule: Q04DX003 (ip), vehicle: saline
[14] = dose: 400.0 mg/kg/injection, schedule: Q04DX003 (ip), vehicle: Klucel (hydroxypropylcellulose) (HPC)
[15] = dose: 100.0 mg/kg/injection, schedule: Q04DX002 (ip), vehicle: Klucel (hydroxypropylcellulose) (HPC)
[16] = dose: 200.0 mg/kg/injection, schedule: Q04DX002 (ip), vehicle: Klucel (hydroxypropylcellulose) (HPC)

Cc1n(Cc2ccccc2)c2c([n+]1C)C(=O)c1ccccc1C2=O
T/C (dose: 0.5 mg/kg/injection, schedule: Q01DX001 (ip), vehicle: saline): 102 % of control
T/C (dose: 1.0 mg/kg/injection, schedule: Q01DX001 (ip), vehicle: saline): 102 % of control
T/C (dose: 1.0 mg/kg/injection, schedule: Q04DX003 (ip), vehicle: Klucel (hydroxypropylcellulose) (HPC)): 100 % of control
T/C (dose: 2.0 mg/kg/injection, schedule: Q01DX001 (ip), vehicle: saline): 106 % of control
T/C (dose: 2.0 mg/kg/injection, schedule: Q04DX003 (ip), vehicle: Klucel (hydroxypropylcellulose) (HPC)): 91 % of control
T/C (dose: 4.0 mg/kg/injection, schedule: Q01DX001 (ip), vehicle: saline): 108 % of control
T/C (dose: 4.0 mg/kg/injection, schedule: Q04DX003 (ip), vehicle: Klucel (hydroxypropylcellulose) (HPC)): 96 % of control
T/C (dose: 125.0 micrograms/kg/injection, schedule: Q01DX009 (ip), vehicle: Klucel (hydroxypropylcellulose) (HPC)): 97 % of control
T/C (dose: 250.0 micrograms/kg/injection, schedule: Q01DX009 (ip), vehicle: Klucel (hydroxypropylcellulose) (HPC)): 97 % of control
T/C (dose: 500.0 micrograms/kg/injection, schedule: Q01DX009 (ip), vehicle: Klucel (hydroxypropylcellulose) (HPC)): 90 % of control
T/C (dose: 1000.0 micrograms/kg/injection, schedule: Q01DX009 (ip), vehicle: Klucel (hydroxypropylcellulose) (HPC)): 101 % of control
T/C (dose: 2000.0 micrograms/kg/injection, schedule: Q01DX009 (ip), vehicle: Klucel (hydroxypropylcellulose) (HPC)): 95 % of control

COC1OCC2OC(C)(C)OC2C1OS(=O)(=O)c1ccc(C)cc1 (stereo not drawn)
T/C [1]: 91 % of control
T/C [2]: 104 % of control
T/C [3]: 102 % of control
T/C [4]: 98 % of control and 96 % of control

O=C1C(c2[nH]c3cc4c(cc3c2O)OCO4)=Nc2cc3c(cc21)OCO3
T/C [1]: 100 % of control
T/C [2]: 103 % of control
T/C [3]: 97 % of control
T/C [4]: 94 % of control

CC(C)(C)NC=O
T/C [5]: 98 % of control
T/C (dose: 75.0 mg/kg/injection, schedule: Q01DX009 (ip), vehicle: saline): 93 % of control
T/C [6]: 106 % of control
T/C [7]: 96 % of control

CS(=O)(=O)OCCN(CCOS(C)(=O)=O)c1cccc(F)c1
T/C (dose: 5.0 mg/kg/injection, schedule: Q01DX001 (ip), vehicle: saline): 98 % of control and 113 % of control
T/C (dose: 9.0 mg/kg/injection, schedule: Q01DX001 (ip), vehicle: saline): 98 % of control
T/C (dose: 10.0 mg/kg/injection, schedule: Q01DX001 (ip), vehicle: saline): 100 % of control
T/C (dose: 13.0 mg/kg/injection, schedule: Q01DX001 (ip), vehicle: saline): 96 % of control
T/C (dose: 30.0 mg/kg/injection, schedule: Q01DX001 (ip), vehicle: saline): 97 % of control
T/C (dose: 40.0 mg/kg/injection, schedule: Q01DX001 (ip), vehicle: saline): 100 % of control
T/C [1]: 103 % of control
T/C (dose: 80.0 mg/kg/injection, schedule: Q01DX001 (ip), vehicle: saline): 98 % of control and 87 % of control
T/C [2]: 105 % of control
T/C [3]: 121 % of control

NNC(=O)Cc1csc2ccccc12
T/C (dose: 55.5 mg/kg/injection, schedule: Q01DX Z (ip), vehicle: carboxymethylcellulose (CMC)): 102 % of control
T/C (dose: 83.3 mg/kg/injection, schedule: Q01DX Z (ip), vehicle: carboxymethylcellulose (CMC)): 114 % of control
T/C (dose: 125.0 mg/kg/injection, schedule: Q01DX Z (ip), vehicle: carboxymethylcellulose (CMC)): 119 % of control

CC(=O)NCCCCCC(=O)O
T/C (dose: 25.0 mg/kg/injection, schedule: Q01DX009 (ip), vehicle: saline): 97 % of control
T/C [5]: 105 % of control
T/C (dose: 50.0 mg/kg/injection, schedule: Q04DX003 (ip), vehicle: saline): 102 % of control
T/C (dose: 100.0 mg/kg/injection, schedule: Q01DX009 (ip), vehicle: Klucel (hydroxypropylcellulose) (HPC)): 98 % of control and 90 % of control
T/C [8]: 108 % of control
T/C [9]: 101 % of control and 88 % of control
T/C [10]: 103 % of control
T/C (dose: 200.0 mg/kg/injection, schedule: Q01DX009 (ip), vehicle: Klucel (hydroxypropylcellulose) (HPC)): 97 % of control and 101 % of control
T/C [11]: 100 % of control
T/C [12]: 101 % of control and 90 % of control
T/C [13]: 104 % of control
T/C (dose: 400.0 mg/kg/injection, schedule: Q01DX009 (ip), vehicle: Klucel (hydroxypropylcellulose) (HPC)): 101 % of control
T/C (dose: 400.0 mg/kg/injection, schedule: Q01DX009 (ip), vehicle: saline): 100 % of control
T/C [14]: 95 % of control and 101 % of control
T/C (dose: 400.0 mg/kg/injection, schedule: Q04DX003 (ip), vehicle: saline): 96 % of control
T/C (dose: 800.0 mg/kg/injection, schedule: Q04DX003 (ip), vehicle: saline): 95 % of control

Cc1cc(C)c(N(CC(=O)O)S(=O)(=O)c2ccccc2)c(C)c1I
T/C (dose: 75.0 mg/kg/injection, schedule: Q04DX003 (ip), vehicle: Klucel (hydroxypropylcellulose) (HPC)): 94 % of control

C(=N\OCCc1ccccc1)/c1cccnc1
T/C (dose: 100.0 mg/kg/injection, schedule: Q01DX009 (ip), vehicle: saline sonified): 98 % of control
T/C (dose: 200.0 mg/kg/injection, schedule: Q01DX009 (ip), vehicle: saline sonified): 100 % of control
T/C (dose: 400.0 mg/kg/injection, schedule: Q01DX009 (ip), vehicle: saline sonified): 102 % of control

Cc1[nH]nc(C(F)(F)F)c1N=NN1CCC(C(N)=O)CC1
T/C (dose: 75.0 mg/kg/injection, schedule: Q01DX001 (ip), vehicle: carboxymethylcellulose (CMC)): 95 % of control

CCCCCCCCCCC(=O)OCC1OC2C(Oc3nc(=N)ccn32)C1OC(=O)CCCCCCCCCC (stereo not drawn)
T/C (dose: 25.0 mg/kg/injection, schedule: Q01DX009 (ip), vehicle: water): 166 % of control
T/C (dose: 50.0 mg/kg/injection, schedule: Q01DX009 (ip), vehicle: water): 210 % of control

NC(=O)/C=C/c1ccc([N+](=O)[O-])cc1
T/C [9]: 97 % of control
T/C [12]: 100 % of control
T/C [14]: 97 % of control

CCCCCC(O)C(C)C (stereo not drawn)
T/C (dose: 37.5 mg/kg/injection, schedule: Q04DX003 (ip), vehicle: saline): 96 % of control
T/C [6]: 108 % of control
T/C [7]: 94 % of control

O=C(O)c1cc(Br)c(Cl)c(Br)c1
T/C [15]: 100 % of control
T/C [16]: 100 % of control

O=C(O)/C(=C\c1ccccc1Cl)c1ccccc1
T/C [15]: 94 % of control
T/C [16]: 90 % of control

CC(=O)NC1C(Oc2ccccc2)OC(C(O)CO)C1O (stereo not drawn)
T/C (dose: 100.0 mg/kg/injection, schedule: Q01DX001 (sc), vehicle: saline): 108 % of control
T/C (dose: 200.0 mg/kg/injection, schedule: Q01DX001 (sc), vehicle: saline): 103 % of control
T/C (dose: 400.0 mg/kg/injection, schedule: Q01DX001 (sc), vehicle: saline): 108 % of control

CS(=O)NOCCCCONS(C)=O (stereo not drawn)
T/C (dose: 100.0 mg/kg/injection, schedule: Q04DX002 (ip), vehicle: saline with Tween-80): 96 % of control and 89 % of control
T/C (dose: 200.0 mg/kg/injection, schedule: Q04DX002 (ip), vehicle: saline with Tween-80): 96 % of control and 100 % of control
T/C (dose: 400.0 mg/kg/injection, schedule: Q04DX002 (ip), vehicle: saline with Tween-80): 86 % of control

Cc1ccc([N+](=O)[O-])cc1NC(=O)SCc1ccccc1
T/C [9]: 93 % of control
T/C [12]: 102 % of control
T/C [14]: 105 % of control

COc1ccc(/C=C2/c3c(c(-c4ccccc4)c4ccccc4c3-c3ccccc3)S2(=O)=O)cc1
T/C (dose: 50.0 mg/kg/injection, schedule: Q01DX001 (ip), vehicle: carboxymethylcellulose (CMC)): 97 % of control
T/C (dose: 100.0 mg/kg/injection, schedule: Q01DX001 (ip), vehicle: carboxymethylcellulose (CMC)): 95 % of control
T/C (dose: 200.0 mg/kg/injection, schedule: Q01DX001 (ip), vehicle: carboxymethylcellulose (CMC)): 95 % of control
T/C (dose: 400.0 mg/kg/injection, schedule: Q01DX001 (ip), vehicle: carboxymethylcellulose (CMC)): 86 % of control

CCCCCCCCCCCCC1C2CCCCC2C2CCCCC12 (stereo not drawn)
T/C [2]: 92 % of control
T/C [3]: 92 % of control
T/C [4]: 92 % of control

O=C(c1ccccc1)N1CCCCC1
T/C [8]: 95 % of control
T/C [10]: 95 % of control
T/C [11]: 95 % of control
T/C [13]: 94 % of control

Cc1ccc(S(=O)(=O)OCC2CO2)c(C)c1 (stereo not drawn)
T/C (dose: 50.0 mg/kg/injection, schedule: Q01DX007 (ip), vehicle: saline with Tween-80): 106 % of control
T/C (dose: 100.0 mg/kg/injection, schedule: Q01DX007 (ip), vehicle: saline with Tween-80): 103 % of control
T/C (dose: 200.0 mg/kg/injection, schedule: Q01DX007 (ip), vehicle: saline with Tween-80): 94 % of control
